The text below walks through data of publication PMC12352620, “Fragment-based discovery of dual ligand pharmacophores for lipid-sensing transcription factors for designed polypharmacology” (RSC Medicinal Chemistry, 2025).

Holding throughout (type): cell-based
One test deals with T1, THRα (Homo sapiens, UniProt P10827).
T1 construct: expressed in transfected cells; host or cells: HEK293T
T1 sequence (P10827 128-410 isoform P10827-2 limits assumed): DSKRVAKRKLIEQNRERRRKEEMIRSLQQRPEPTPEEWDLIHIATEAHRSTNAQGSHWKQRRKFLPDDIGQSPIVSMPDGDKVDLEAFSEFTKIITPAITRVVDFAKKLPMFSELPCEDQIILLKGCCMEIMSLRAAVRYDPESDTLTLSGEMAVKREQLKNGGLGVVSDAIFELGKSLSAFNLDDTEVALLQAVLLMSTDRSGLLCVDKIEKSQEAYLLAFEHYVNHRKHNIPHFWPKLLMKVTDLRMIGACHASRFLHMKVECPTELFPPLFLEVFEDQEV
In words: Gal4-hybrid reporter gene assay THRα. Particulars: mean ± S.E.M., n ≥ 3; for EC50 / EC50 THRα: HEK293T, Gal4-hybrid reporter, Inactive = tested 1–300 μM; for max. fold activation THRα: maximum reporter activation vs DMSO (0.1%) treated cells. As for the experimental part: (§1) NR modulation was determined as described previously[45] in Gal4 hybrid reporter gene assays in HEK293T cells (German Collection of Microorganisms and Cell Culture GmbH, DSMZ) using pFR-Luc (Stratagene, La Jolla, CA, USA; reporter), pRL-SV40 (Promega, Madison, WI, USA; internal control) and the hybrid receptor clones pFA-CMV-hTHRα-LBD,[46] pFA-CMV-hPPARγ-LBD,[47] pFA-CMV-hFXR-LBD,[48] and pFA-CMV-hRXRα-LBD,[49] coding for the hinge region and ligand binding domain of the canonical isoform of the respective NR. Cells were cultured in Dulbecco's modified Eagle's medium (DMEM), high glucose supplemented with 10% fetal calf serum (FCS), sodium pyruvate (1 mM), penicillin (100 U mL^−1), and streptomycin (100 μg mL^−1) at 37 °C and 5% CO2 and seeded in 96-well plates (3 × 10^4 cells per well). After 24 h, medium was changed to Opti-MEM without supplements and cells were transiently transfected using Lipofectamine LTX reagent (Invitrogen, Carlsbad, CA, USA) according to the manufacturer's protocol. Five hours after transfection, cells were incubated with the test compounds in Opti-MEM supplemented with penicillin (100 U mL^−1), streptomycin (100 μg mL^−1) and 0.1% DMSO for 16 h before luciferase activity was measured using the Dual-Glo Luciferase Assay System (Promega) according to the manufacturer's protocol on a Tecan Spark luminometer (Tecan Deutschland GmbH, Crailsheim, Germany). Firefly luminescence was divided by Renilla luminescence and multiplied by 1000 resulting in relative light units (RLU) to normalize for transfection efficiency and cell growth. Fold activation was obtained by dividing the mean RLU of test compound by the mean RLU of the untreated control. All samples were tested in at least three biologically independent experiments in duplicates. For dose–response curve fitting and calculation of EC50 values, the equation “[agonist] vs. response − variable slope (four parameters)” was used in GraphPad Prism (version 7.00, GraphPad Software, La Jolla, CA, USA). For selectivity profiling, the hybrid reporter gene assay was performed with Gal4 fusion receptor plasmids for RARα, PPARα, PPARδ, VDR, CAR and LXRα. The following reference agonists were used: triiodothyronine (1 μM, THR), all-trans retinoic acid (1 μM, RAR), GW7647 (1 μM, PPARα), pioglitazone (1 μM, PPARγ), L165041 (1 μM, PPARδ), calcitriol (1 μM, VDR), CITCO (1 μM, CAR), T0901317 (1 μM, LXR), GW4064 (1 μM, FXR), bexarotene (1 μM, RXR).

In a further test the target is T2, PPARγ (Homo sapiens, UniProt P37231).
T2 construct: expressed in transfected cells; host or cells: HEK293T
T2 sequence (P37231 238-503 limits assumed): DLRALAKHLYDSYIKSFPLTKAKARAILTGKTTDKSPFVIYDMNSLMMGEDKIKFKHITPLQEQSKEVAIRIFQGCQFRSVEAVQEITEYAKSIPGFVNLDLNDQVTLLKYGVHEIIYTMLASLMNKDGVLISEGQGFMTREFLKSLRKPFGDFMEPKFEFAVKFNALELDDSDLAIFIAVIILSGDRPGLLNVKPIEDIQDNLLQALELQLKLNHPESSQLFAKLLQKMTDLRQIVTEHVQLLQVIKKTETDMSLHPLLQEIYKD
The test can be described thus: Gal4-hybrid reporter gene assay PPARγ. As to conditions: mean ± S.E.M., n ≥ 3; for EC50: HEK293T, Gal4-hybrid reporter, Inactive = tested 1–300 μM; for max. fold activation PPARγ: maximum reporter activation vs DMSO (0.1%) treated cells. As for the experimental part: as §1
On the technique in general: In a reporter assay the amount or activity of a reporter protein is the signal.

For a further test, the target named is T3, FXR (Homo sapiens, UniProt Q96RI1).
T3 construct: expressed in transfected cells; host or cells: HEK293T
T3 sequence (Q96RI1 262-486 limits assumed): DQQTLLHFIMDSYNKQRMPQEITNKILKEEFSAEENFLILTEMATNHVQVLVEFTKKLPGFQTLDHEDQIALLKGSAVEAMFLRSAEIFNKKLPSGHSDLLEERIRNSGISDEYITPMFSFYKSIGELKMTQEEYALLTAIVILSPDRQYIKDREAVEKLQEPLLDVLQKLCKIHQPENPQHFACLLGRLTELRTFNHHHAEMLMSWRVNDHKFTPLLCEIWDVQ
In words: Gal4-hybrid reporter gene assay FXR. Particulars: mean ± S.E.M., n ≥ 3; for EC50 / EC50 FXR: HEK293T, Gal4-hybrid reporter, Inactive = tested 1–300 μM; for max. fold activation FXR: maximum reporter activation vs DMSO (0.1%) treated cells. The protocol: as §1

The target in another test is T4, RXRα (Homo sapiens, UniProt P19793).
T4 construct: expressed in transfected cells; host or cells: HEK293T
T4 sequence (P19793 227-458 limits assumed): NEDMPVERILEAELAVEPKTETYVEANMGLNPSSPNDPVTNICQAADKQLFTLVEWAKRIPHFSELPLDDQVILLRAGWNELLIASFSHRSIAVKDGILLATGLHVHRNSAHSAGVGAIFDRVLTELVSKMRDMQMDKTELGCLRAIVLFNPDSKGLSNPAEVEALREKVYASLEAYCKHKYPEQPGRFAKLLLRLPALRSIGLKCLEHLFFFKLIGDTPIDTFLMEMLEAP
In words: Gal4-hybrid reporter gene assay RXRα. As to conditions: mean ± S.E.M., n ≥ 3; for EC50 / EC50 RXRα: HEK293T, Gal4-hybrid reporter, Inactive = tested 1–300 μM; for max. fold activation RXRα: maximum reporter activation vs DMSO (0.1%) treated cells. The protocol:
as §1

Molecules are shown by their SMILES.

Consider `O=C(O)/C=C/C=C/c1ccc2c(c1)OCO2` [2.6], for which, at THRα, the EC50 came to 225 ± 91 µM and the “max. fold activation THRα” value was “(5.0 ± 1.4-fold)”. At PPARγ, the EC50 was 137 ± 8 µM and the “max. fold activation PPARγ” value was “(9.3 ± 0.5-fold)”. Besides, at FXR, the EC50 is 138 ± 44 µM and the “max. fold activation FXR” value was “(5.2 ± 0.8-fold)”. At RXRα, the response was half-maximal at 112 ± 19 µM (EC50) and the “max. fold activation RXRα” value is given as “(3.4 ± 0.2-fold)”.
As to `CCOc1ccc(C(=O)/C=C/C(=O)O)cc1` [2.7], on THRα, the EC50 is 27 ± 1 µM and the “max. fold activation THRα” value was “(8.9 ± 0.5-fold)”. Also, on PPARγ, the half-maximal effective concentration (EC50) was 25.9 ± 0.4 µM and the “max. fold activation PPARγ” value is on record as “(31.2 ± 0.6-fold)”. Besides, at FXR, a half-maximal effect (EC50) was put at 26 ± 1 µM and the “max. fold activation FXR” value was “(9.5 ± 0.4-fold)”. Further, on RXRα, the EC50 came out at 33 ± 6 µM and the “max. fold activation RXRα” value is “(8 ± 1-fold)”.
With `COc1ccc(/C=C/C(=O)O)cc1` [2.12], on THRα, the “EC50 THRα” value is given as “Inactive”. Besides, on PPARγ, it took 126 ± 9 µM to reach a half-maximal effect (EC50) and the “max. fold activation PPARγ” value is reported as “(6.7 ± 0.3-fold)”. Also, on FXR, the “EC50 FXR” value is “Inactive”. Further, the “EC50 RXRα” value on RXRα was “Inactive”.
Consider `O=C(O)/C=C/C(=O)c1cccc(Cl)c1` [2.16], for which, on THRα, the “EC50 THRα” value is on record as “Inactive”. Besides, at PPARγ, the midpoint of the response, the EC50, lay at 34 ± 7 µM and the “max. fold activation PPARγ” value is reported as “(8.2 ± 0.5-fold)”. At FXR, the “EC50 FXR” value was “Inactive”. In addition, at RXRα, the “EC50 RXRα” value was “Inactive”.
Turning to `COc1ccc(/C=C(/C(=O)O)C(F)(F)F)cc1` [2.19], on THRα, a half-maximal response (EC50) required 55 ± 19 µM and the “max. fold activation THRα” value was “(2.6 ± 0.3-fold)”. On PPARγ, the EC50 was 86 ± 8 µM and the “max. fold activation PPARγ” value was “(21 ± 1-fold)”. Besides, at FXR, the midpoint of the response, the EC50, lay at 108 ± 22 µM and the “max. fold activation FXR” value was “(3.2 ± 0.4-fold)”. Besides, on RXRα, the EC50 turned out to be 55 ± 8 µM and the “max. fold activation RXRα” value was “(3.5 ± 0.1-fold)”.
With `O=C(O)CCCC#Cc1ccccc1` [2.27], the “EC50 THRα” value at THRα is on record as “Inactive”. Moreover, on PPARγ, the midpoint of the response, the EC50, lay at 106 ± 5 µM and the “max. fold activation PPARγ” value is recorded as “(25.0 ± 0.8-fold)”. In addition, on FXR, the “EC50 FXR” value is “Inactive”. For the same compound, on RXRα, a half-maximal response (EC50) required 129 ± 11 µM and the “max. fold activation RXRα” value is “(22.5 ± 1.5-fold)”.
On to `O=C(O)/C=C/C(=O)c1ccc(F)cc1F` [2.28], for which, on THRα, the EC50 is 10 ± 3 µM and the “max. fold activation THRα” value is “(1.7 ± 0.1-fold)”. On PPARγ, the EC50 stood at 51 ± 9 µM and the “max. fold activation PPARγ” value is recorded as “(11.0 ± 0.5-fold)”. Besides, at FXR, the “EC50 FXR” value is given as “Inactive”. For the same compound, at RXRα, the “EC50 RXRα” value is listed as “Inactive”.
For the compound `O=C(O)COc1ccccc1Cc1ccccc1` [2.43], the “EC50 THRα” value at THRα was “Inactive”. Also, at PPARγ, the EC50 came out at 47 ± 3 µM and the “max. fold activation PPARγ” value is “(17.4 ± 0.3-fold)”. In addition, the “EC50 FXR” value at FXR is “Inactive”. Further, the “EC50 RXRα” value on RXRα is on record as “Inactive”.
Regarding `O=C(O)c1coc(-c2cccc(Cl)c2)c1` [3.2, 5-(3-Chlorophenyl)furan-3-carboxylic acid], on THRα, the EC50 was 26 ± 5 µM and the “max. fold activation THRα” value was “(2.1 ± 0.2-fold)”. Further, at PPARγ, the EC50 amounted to 32 ± 2 µM and the “max. fold activation PPARγ” value is on record as “(3.2 ± 0.2-fold)”. Also, at FXR, the EC50 stood at 11 ± 2 µM and the “max. fold activation FXR” value was “(1.7 ± 0.1-fold)”. Further, at RXRα, the midpoint of the response, the EC50, lay at 14 ± 5 µM and the “max. fold activation RXRα” value is reported as “(2.1 ± 0.2-fold)”.
In the case of `O=C(O)/C=C/C(=O)c1ccccc1` [4.1, (E)-4-Oxo-4-phenylbut-2-enoic acid], the “EC50 THRα” value on THRα is “Inactive”. Besides, at PPARγ, the EC50 amounted to 62 ± 2 µM and the “max. fold activation PPARγ” value is listed as “(26 ± 2-fold)”. Further, the “EC50 FXR” value on FXR is “Inactive”. The “EC50 RXRα” value at RXRα was “Inactive”.

The EC50 is the midpoint of the concentration-response curve. Lower therefore signals greater potency.
